{"source": "patent US7632848B1", "about": "“Medical treatment of muscles by exposure to anesthetic drugs” (priority 2007, dated 2009)", "key": {"skeletal muscle fibers": {"system": "skeletal muscle fibers", "conditions": "in vivo; cited from earlier work"}, "[1]": {"system": "eye muscle (lateral rectus muscle)", "format": "in vivo, human", "text": "In one embodiment, an eye muscle is selected for treatment. For an eye that is esotropic (turned inward or crossed), the physician will want to strengthen the lateral rectus muscle, which acts to pull the eye outward into better alignment. The surface of the eye is anesthetized with eye drops. A syringe is filled with up to 5.0 cc of bupivacaine, enough to fill the muscle and reach all the muscle fibers. The concentration of the bupivacaine solution is from 0.5% to 3.0%. The volume and concentration are varied depending on the amount of strengthening effect required. The syringe is attached to an injection needle insulated on its shaft. Therefore, the muscle electrical activity is picked up only with the exposed tip of the needle. The needle is attached to a wire leading to an electromyographic (EMG) recorder. A second wire leads to a ground attached to the skin of the patient's body. The eye is moved to a position at which the lateral rectus muscle to be treated is activated electrically as well as physically contracted. As the tip of the needle approaches the muscle area, the electrical activity is picked up and amplified by the EMG recorder as sound. The sound gets louder as the needle tip gets closer to and finally within the muscle. The needle is advanced behind the eye to the end of the muscle, about 3 cm, keeping the needle within the muscle, guided by the amplitude of the recorded sound. This is important, as the drug will anesthetize the nerves and the muscle with injection of the first few drops, thereafter leaving no guide as to position of the needle. The drug solution is injected starting at this deepest point, with continued injection of solution as the needle is withdrawn. In order to get the maximum effect, all the fibers of the muscle must be exposed to the drug. A smaller volume and concentration are applied when a sub-maximum effect is wanted. […] (Scott, A. B., Alexander, D. E., Miller, J. M., 2007, Bupivacaine injection of eye muscles to treat strabismus. Br J. Opthalmol. 91 (2), 146-148) In one case of eye muscle injection, I marked the solution with a contrast agent to show the exact location of the injected drug. […] All the same, the muscle became larger and stronger. This teaches that exposure of the fibers can also be effected by injecting around the muscle to bathe it. All the muscle fibers must be exposed to the drug to provide the maximal effect. Reducing exposure of the muscle fibers to the drug by reducing the volume of solution injected or by using a lower concentration of drug can be expected to provide a lesser effect. […]"}, "[2]": {"system": "extensor digitorum longus muscle", "conditions": "rat hind limb, sufficient concentration and volume; cited from earlier work"}}}
{"smiles": "CCCCN1CCCCC1C(=O)Nc1c(C)cccc1C", "note": "(stereo not drawn) [bupivacaine]", "values": [{"measurement": "toxicity to muscle fibers", "setting": "skeletal muscle fibers", "result": "irreversible breakdown of the muscle fibers"}, {"measurement": "duration of muscle inactivity from the anesthetic effect", "setting": "[1]; eye muscle injection, up to 5.0 cc, 0.5% to 3.0%", "result": "inactive for a day"}, {"measurement": "eye position and movement after recovery", "setting": "[1]; eye muscle injection, as the muscle enlarges and strengthens", "result": "typically improve"}, {"measurement": "recovery from the myotoxic effect", "setting": "[1]; in vivo", "result": "gradually recovers from the myotoxic effect of the drug over the next week"}, {"measurement": "effect on muscle size and strength", "setting": "[1]; muscle fibers exposed to adequate concentration and volume of drug", "result": "enlarge and become stronger"}, {"measurement": "muscle size after injection", "setting": "[2]", "result": "enlargement of the muscle beyond its original size"}]}
